Paper PMC8019741, “Efficacy Prediction of Four Pharmaceutical Formulations for Intramammary Administration Containing Aloe vera (L.) Burm. f. Combined With Ceftiofur or Cloxacillin in Lactating Cows as an Alternative Therapy to Treat Mastitis Caused by Staphylococcus aureus” (Frontiers in Veterinary Science, 2021)

System: Staphylococcus aureus ATCC 29213
Assay: Macrodilution MIC test (CLSI)
Type: cell-based
Details: for MIC of the antimicrobial not combined: alone
Protocol: A macrodilution test was performed to determine the MIC for the different combinations, following the recommendations from the CLSI ([47]).
Aloe vera gel extract (1,200 mg/ml) was diluted in Muller-Hinton II (Cation Adjusted) Broth (MHBCA) from BD® (Franklin Lakes, NJ, USA) up to a range of concentrations from 150 to 1,200 mg/ml. In addition, the standard solutions of cloxacillin and ceftiofur were diluted in MHBCA to prepare 2-fold serial dilutions at a concentrations range of 0.015–128 μg/ml.
Staphylococcus aureus ATCC 29213 (KWIK-STIK) was sourced from Microbiologics® (St. Cloud, MN, USA) and used to test the MIC for the different combinations of Aloe vera and cloxacillin or ceftiofur. First, S. aureus was rehydrated with Trypticase™ Soy Broth from BD® (Franklin Lakes, NJ, USA). Then, these bacteria were cultured in the Trypticase™ Soy Broth from BD® (Franklin Lakes, NJ, USA) with 5% sheep defibrinated blood (Franklin Lakes, NJ, USA) at an incubation temperature of 36 ± 1°C for 24 h. Once incubation ended, bacteria were preserved at −80°C using cryobank vials, while waiting for further processing. […] These cultured bacteria were then suspended in MHBCA from BD® (Franklin Lakes, NJ, USA), and the optical density was adjusted according to the McFarland Standard Solution to standardize the number of bacteria. From this broth, dilutions containing 5 × 10^5 UFC/ml were incubated along with dilutions of a combination of Aloe vera extract and antimicrobials. […] Additionally, S. aureus bacteria were incubated separately, in different tubes, with the extract, cloxacillin, and ceftiofur dilutions.

MIC (Staphylococcus aureus, ATCC29213, calculated from the MIC of Aloe vera in the combination and the concentration of aloin A + aloin B in the extract)	MIC of the antimicrobial not combined	SMILES
0.00366 µg/mL	–	O=C1c2c(O)cccc2C([C@@H]2O[C@H](CO)[C@@H](O)[C@H](O)[C@H]2O)c2cc(CO)cc(O)c21 (stereo partly drawn) [aloin]
–	0.25 µg/mL	CO/N=C(\C(=O)N[C@@H]1C(=O)N2C(C(=O)O)=C(CSC(=O)c3ccco3)CS[C@H]12)c1csc(N)n1 [ceftiofur]
–	0.25 µg/mL	Cc1onc(-c2ccccc2Cl)c1C(=O)N[C@@H]1C(=O)N2[C@@H]1SC(C)(C)[C@@H]2C(=O)O [cloxacillin]
